For this experiment, the target named is T1, integrin α3β1 (Homo sapiens, UniProt P05556+P26006).
T1 construct: integrin α3β1 expressed on human MDA‐MB231 cells; endogenous in cells; host or cells: MDA-MB231 (human)
In words: Binding of stapled peptides to integrin α3β1 on MDA-MB231 cells, flow cytometry with streptavidin-PerCP-Cy5.5 staining. The protocol: The obtained stapled peptides P1 a–g were tested for binding to integrin α3β1 expressed on human MDA‐MB231 cells (Figure S2). Upon incubation for 30 min with different concentrations of the stapled P1 a–g variants, streptavidin‐PerCP‐Cy5.5 was added after three washing steps to allow detection by flow cytometry. Peptide P2 (P1 in its disulfide cyclized form) served as a positive control, which bound with an apparent affinity of 100 nM.[23]
Binding of stapled peptides to murine 4T1 cells and human MDA-MB231 cells
Figure S2: Determination of Kd values for peptides P1a-h based on streptavidin-PerCP-Cy5.5 staining of integrin- containing cells incubated with different peptide concentrations. A: Peptides P1a-c in mouse 4T1 cells. B: P1a-c in human MDA-MB231 cells. C: Peptides P1d-h in human MDA-MB231 cells.
4T1 and MDA-MB231 cells were grown in culture according to the suppliers’ guidelines, and cells were detached by using trypsin/EDTA (PAN, diluted 1:2 with PBS). Resuspended cells in complete culture medium were centrifuged and washed once with washing buffer [HEPES (pH 7.3, 10 mM) in NaCl (0.9 %)] at 4°C and resuspended (2x10^6 cells mL-1) in peptide blocking buffer (PBB): HEPES (pH 7.3, 10 mM) in NaCl (0.9%) + KCl (5 mM), BSA (3%) + FCS (5 %) + MnCl2 (4 mM). Peptide samples were prepared at twice the final concentration in PBB and added to the cells to give final peptide concentrations of 1 nM - 3 µM. Cells (1x105 per 50 µL) were aliquoted into FACS tubes and incubated for 10 min on ice before addition of the peptide samples (50 µL). […]
PerCP-Cy5.5 (100 µL, Beckton Dickinson, 0.5 mg mL-1) in PBB. […] Cells were kept on ice until analysis with a FACS Canto instrument and 10000 events/sample were recorded. Data were evaluated with Flowing software. Gating was performed on single and live cells, and histograms of PerCP–Cy5.5 fluorescence were plotted. Kd values were calculated by fitting the data to a one-site specific binding model [Y=BmaxVX/(Kd+X)] by using GraphPad Prism, and errors represent the standard error of the fit.
A general note: In flow cytometry, cells or beads pass a laser one at a time.

[1] abbreviates: Figure 2, integrin α3β1, flow cytometry binding, read-out: Kd.

Each structure is given as a SMILES string. Read-outs that look alike come from different tables or passages of the source. Starred links: 1 amine or outer side, 2 acyl side, 3 side chain; linkers in the order of their positions; H or OH if unused. Positions of bridges follow the written chain, without caps; N, C: chain ends. Non-standard residues stand in square brackets, D forms with d. Residues, ends and D or L forms follow the SMILES beside them. Groups on a side chain read outwards from the residue. *: point of attachment. X1 = O=C(CCCC[C@@H]1SC[C@@H]2NC(=O)N[C@@H]21)NCCCOCCOCCOCCCN*; Tyr(3-NO2) = N[C@@H](Cc1ccc(O)c([N+](=O)[O-])c1)C(=O)O; Glutaryl = O=C(CCCC(=O)[*:2])[*:1]; Hyp = O=C(O)[C@@H]1C[C@@H](O)CN1; X2 = C(=C/C[*:2])/C[*:1]; X3 = C(#CC[*:2])C[*:1]

T1 sequence (P26006 33-872 limits assumed): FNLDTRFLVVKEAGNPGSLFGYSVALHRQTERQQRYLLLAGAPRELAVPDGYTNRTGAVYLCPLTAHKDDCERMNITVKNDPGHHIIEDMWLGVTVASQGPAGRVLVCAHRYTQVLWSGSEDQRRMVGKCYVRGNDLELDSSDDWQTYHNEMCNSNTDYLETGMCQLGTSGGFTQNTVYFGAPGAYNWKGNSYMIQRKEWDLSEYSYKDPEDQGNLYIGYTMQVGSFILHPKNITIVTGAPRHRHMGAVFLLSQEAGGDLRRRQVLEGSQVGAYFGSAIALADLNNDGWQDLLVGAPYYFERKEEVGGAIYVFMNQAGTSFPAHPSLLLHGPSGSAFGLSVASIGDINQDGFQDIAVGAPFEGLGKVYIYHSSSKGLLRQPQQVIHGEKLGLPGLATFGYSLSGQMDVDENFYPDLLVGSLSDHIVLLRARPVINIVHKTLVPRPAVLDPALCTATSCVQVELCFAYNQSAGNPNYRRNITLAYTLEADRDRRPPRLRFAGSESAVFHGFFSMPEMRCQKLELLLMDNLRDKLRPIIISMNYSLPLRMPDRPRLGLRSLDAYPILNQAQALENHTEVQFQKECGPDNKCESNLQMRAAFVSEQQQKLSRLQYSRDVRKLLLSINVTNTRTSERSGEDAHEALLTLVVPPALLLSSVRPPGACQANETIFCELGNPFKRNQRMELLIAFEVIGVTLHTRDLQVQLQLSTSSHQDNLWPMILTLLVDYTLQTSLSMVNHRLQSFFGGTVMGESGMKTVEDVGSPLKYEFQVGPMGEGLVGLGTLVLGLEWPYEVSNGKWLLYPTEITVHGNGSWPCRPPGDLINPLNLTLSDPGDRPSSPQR
T1 sequence (P26006 878-1051 limits assumed): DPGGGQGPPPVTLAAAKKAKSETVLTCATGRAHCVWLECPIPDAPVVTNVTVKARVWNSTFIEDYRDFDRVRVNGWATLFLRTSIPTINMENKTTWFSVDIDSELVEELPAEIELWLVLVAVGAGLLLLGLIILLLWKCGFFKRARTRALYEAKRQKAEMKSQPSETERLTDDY
T1 sequence (P05556 21-798): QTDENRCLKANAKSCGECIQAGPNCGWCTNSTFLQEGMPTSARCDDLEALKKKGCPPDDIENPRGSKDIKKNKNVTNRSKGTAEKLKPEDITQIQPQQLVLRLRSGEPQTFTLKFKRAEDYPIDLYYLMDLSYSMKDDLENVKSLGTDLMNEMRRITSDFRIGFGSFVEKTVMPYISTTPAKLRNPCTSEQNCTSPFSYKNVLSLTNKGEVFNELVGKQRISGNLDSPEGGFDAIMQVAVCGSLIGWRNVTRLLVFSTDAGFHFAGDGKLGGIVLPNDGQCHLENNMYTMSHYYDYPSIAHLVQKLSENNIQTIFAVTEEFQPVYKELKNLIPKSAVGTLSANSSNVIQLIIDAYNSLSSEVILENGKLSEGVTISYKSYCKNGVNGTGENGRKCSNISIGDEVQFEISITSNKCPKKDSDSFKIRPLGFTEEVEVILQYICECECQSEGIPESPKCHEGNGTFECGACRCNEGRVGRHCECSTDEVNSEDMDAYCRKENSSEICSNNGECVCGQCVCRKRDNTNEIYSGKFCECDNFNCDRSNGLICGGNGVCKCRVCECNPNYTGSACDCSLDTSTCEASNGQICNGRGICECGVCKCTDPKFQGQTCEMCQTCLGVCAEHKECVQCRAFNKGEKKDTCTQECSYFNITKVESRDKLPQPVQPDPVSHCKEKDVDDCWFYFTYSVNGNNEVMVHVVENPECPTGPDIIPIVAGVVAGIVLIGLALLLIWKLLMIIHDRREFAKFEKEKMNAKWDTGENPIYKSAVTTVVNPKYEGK

For `NC(=O)C[C@@H]1NC(=O)[C@@H]2C[C@@H](O)CN2C(=O)CNC(=O)[C@H](Cc2ccc(O)c([N+](=O)[O-])c2)NC(=O)CNC(=O)[C@@H](CC(=O)O)NC(=O)[C@H](N)CSSC[C@H](C(=O)NCC(=O)NCC(=O)N[C@@H](CCCCNC(=O)CCCC(=O)NCCCOCCOCCOCCCNC(=O)CCCC[C@@H]2SC[C@@H]3NC(=O)N[C@@H]32)C(N)=O)NC1=O` [Peptide P2, reference compound] (H-[dC][dD]G[Tyr(3-NO2)]G[Hyp]N[dC]GGK([Glutaryl-X1])-NH2; disulfide 1-8), under setting [1], the Kd is 0.1 µM. Regarding `NC(=O)C[C@@H]1NC(=O)[C@@H]2C[C@@H](O)CN2C(=O)CNC(=O)[C@H](Cc2ccc(O)c([N+](=O)[O-])c2)NC(=O)CNC(=O)[C@@H](CC(=O)O)NC(=O)[C@H](N)CSC/C=C\CSC[C@H](C(=O)NCC(=O)NCC(=O)N[C@@H](CCCCNC(=O)CCCC(=O)NCCCOCCOCCOCCCNC(=O)CCCC[C@@H]2SC[C@@H]3NC(=O)N[C@@H]32)C(N)=O)NC1=O` [P1 a] (H-[dC][dD]G[Tyr(3-NO2)]G[Hyp]N[dC]GGK([Glutaryl-X1])-NH2; linker 1-8 via X2), the Kd under setting [1] came out at 13 µM.

As for `NC(=O)C[C@@H]1NC(=O)[C@@H]2C[C@@H](O)CN2C(=O)CNC(=O)[C@H](Cc2ccc(O)c([N+](=O)[O-])c2)NC(=O)CNC(=O)[C@@H](CC(=O)O)NC(=O)[C@H](N)CSCC#CCSC[C@H](C(=O)NCC(=O)NCC(=O)N[C@@H](CCCCNC(=O)CCCC(=O)NCCCOCCOCCOCCCNC(=O)CCCC[C@@H]2SC[C@@H]3NC(=O)N[C@@H]32)C(N)=O)NC1=O` [P1 d] (H-[dC][dD]G[Tyr(3-NO2)]G[Hyp]N[dC]GGK([Glutaryl-X1])-NH2; linker 1-8 via X3), the Kd (integrin α3β1 expressed on human MDA-MB231 cells, 30 min incubation on ice, streptavidin-PerCP-Cy5.5, flow cytometry, one-site specific binding fit, read-out: binding affinity) is about 10 µM.

Values taken from PMC10947015, “Constraining and Modifying Peptides Using Pd‐Mediated Cysteine Allylation” (Chembiochem, 2023).
